Experimental data taken from patent US20060122194A1, “Tablet comprising efletirizine and pseudoephedrine” (UCB Farchim S.A., priority 2002, published 2006).

Key:
[1] = stability of the tablet / of efletirizine with pseudoephedrine; assay type: physicochemical; conditions: efletirizine and pseudoephedrine formulated together in the same segment
histamine H1-receptor = histamine H1-receptor (Homo sapiens, UniProt P35367); conditions: in vitro; cited from earlier work
histamine H1-receptor, sequence (P35367 whole entry, species assumed): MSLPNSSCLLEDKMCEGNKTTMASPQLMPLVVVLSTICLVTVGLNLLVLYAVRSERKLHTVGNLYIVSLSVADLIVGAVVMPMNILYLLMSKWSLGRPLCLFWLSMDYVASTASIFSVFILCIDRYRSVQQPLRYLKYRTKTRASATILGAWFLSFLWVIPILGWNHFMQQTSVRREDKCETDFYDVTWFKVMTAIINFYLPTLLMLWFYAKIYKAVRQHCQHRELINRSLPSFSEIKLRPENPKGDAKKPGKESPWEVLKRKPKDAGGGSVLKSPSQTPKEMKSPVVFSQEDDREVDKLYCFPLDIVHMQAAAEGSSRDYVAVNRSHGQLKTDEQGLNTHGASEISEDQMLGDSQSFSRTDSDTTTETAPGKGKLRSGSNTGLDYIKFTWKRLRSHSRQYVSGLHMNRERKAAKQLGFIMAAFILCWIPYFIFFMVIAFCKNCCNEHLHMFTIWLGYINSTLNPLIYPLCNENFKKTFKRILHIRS

Compound: O=C(O)COCCN1CCN(C(c2ccc(F)cc2)c2ccc(F)cc2)CC1 [Efletirizine, 2-{2-[4-[bis(4-fluorophenyl)methyl)-1-piperazinyl]ethoxy}acetic acid]
- degradation of efletirizine [1]: a degradation of efletirizine appeared
- affinity and selectivity for H1-receptors (histamine H1-receptor): high affinity and selectivity
